Measurements: patent US7439372B2, “Therapeutic compounds” (Allergan, Inc., priority 2006, dated 2008)

Assays:
[1] = Intraocular pressure in dog; assay type: in vivo; settings: Conc. 0.1% (g/100 mL)
Text: U.S. patent application Ser. No. 11/553,143, filed on Oct. 26, 2006, incorporated by reference herein, describes the methods used to obtain the in vitro data in the table below.

[2] = Intraocular pressure in monkey; assay type: in vivo; settings: Conc. 0.1% (g/100 mL)
[3] = Ocular hyperemia in dog; assay type: in vivo; settings: Conc. 0.1% (g/100 mL)
[4] = molecular target: T1, EP4 receptors (Homo sapiens, UniProt P35408); test: Radioligand binding, [3H]PGE2, HEK-293 cells stably expressing EP4 receptors; settings: [3H]PGE2 competition
T1 construct: expressed in transfected cells; host or cells: HEK-293
Protocol: (§1) HEK-293 cells stably expressing the human or feline FP receptor, or EP1, EP2, or EP4 receptors were washed with TME buffer, scraped from the bottom of the flasks, and homogenized for 30 sec using a Brinkman PT 10/35 polytron. TME buffer was added to achieve a final 40 ml volume in the centrifuge tubes (the composition of TME is 100 mM TRIS base, 20 mM MgCl2, […]; 10N HCl is added to achieve a pH of 7.4).
(§2) The cell homogenate was centrifuged at 19000 r.p.m. for 20 min at 4° C. using a Beckman Ti-60 rotor. The resultant pellet was resuspended in TME buffer to give a final 1 mg/ml protein concentration, as determined by Biorad assay. Radioligand binding competition assays vs. [^3H-]17-phenyl PGF2α (5 nM) were performed in a 100 μl volume for 60 min. Binding reactions were started by adding plasma membrane fraction. The reaction was terminated by the addition of 4 ml ice-cold TRIS-HCl buffer and rapid filtration through glass fiber GF/B filters using a Brandel cell harvester. The filters were washed 3 times with ice-cold buffer and oven dried for one hour.
(§3) [^3H-]PGE2 (specific activity 180 Ci mmol) was used as the radioligand for EP receptors. [^3H]17-phenyl PGF2α was employed for FP receptor binding studies. Binding studies employing EP1, EP2, EP4 and FP receptors were performed in duplicate in at least three separate experiments. A 200 μl assay volume was used. Incubations were for 60 min at 25° C. and were terminated by the addition of 4 ml of ice-cold 50 mM TRIS-HCl, followed by rapid filtration through Whatman GF/B filters and three additional 4 ml washes in a cell harvester (Brandel). Competition studies were performed using a final concentration of 5 nM [^3H]-PGE2, or 5 nM [^3H] 17-phenyl PGF2α and non-specific binding determined with 10^−5M of unlabeled PGE2, or 17-phenyl PGF2α, according to receptor subtype studied.

[5] = molecular target: EP2 (Homo sapiens, UniProt P43116); test: Competition binding, [3H]PGE2, HEK 293 cells stably expressing human EP2 receptors; design: expressed in transfected cells; host or cells: HEK 293; settings: [3H]PGE2 competition
Protocol: Competition binding experiments were performed in a medium containing Hank's balanced salt solution, Hepes 20 mM, pH 7.3, membranes (˜60 μg protein) or 2×10^5 cells from HEK 293 cells stably expressing human EP2 receptors, [^3H]PGE2 (10 nM) and various concentrations of test compounds in a total volume of 300 μl. Reaction mixtures were incubated at 23° C. for 60 min, and were filtered over Whatman GF/B filters under vacuum. Filters were washed three times with 5 ml ice-cold buffer containing 50 mM Tris/HCl (pH 7.3). Non-specific binding was estimated in the presence of excess unlabeled PGE2 (10 μM). Binding data fitted to the binding model for a single class of binding sites, using nonlinear regression analysis. IC50 values thus obtained were converted to Ki using the equation of Ki=(IC50/(1+[L]/KD) where [L] represents PGE2 concentration (10 nM) and KD the dissociation constant for [3H]PGE2 at human EP2 receptors (40 nM).
as §1, §2, §3

[6] = molecular target: T2, hEP4/Gqs5 (Homo sapiens, UniProt P35408); test: FLIPR calcium signal, HEK-293(EBNA) cells expressing hEP4/Gqs5; assay type: cell-based
T2 construct: expressed in transfected cells; host or cells: HEK-293(EBNA)
Protocol: HEK-293(EBNA) cells, stably expressing one type or subtype of recombinant human prostaglandin receptors (prostaglandin receptors expressed: hDP/Gqs5; hEP1; hEP2/Gqs5; hEP3A/Gqi5; hEP4/Gqs5; hFP; hIP; hTP), were cultured in 100 mm culture dishes in high-glucose DMEM medium containing 10% fetal bovine serum, 2 mM l-glutamine, 250 µg/ml geneticin (G418) and 200 μg/ml hygromycin B as selection markers, and 100 units/ml penicillin G, 100 µg/ml streptomycin and 0.25 μg/ml amphotericin B.
Cells were seeded at a density of 5×10^4 cells per well in Biocoat® Poly-D-lysine-coated black-wall, clear-bottom 96-well plates (Becton-Dickinson) and allowed to attach overnight in an incubator at 37° C. Cells were then washed two times with HBSS-HEPES buffer (Hanks Balanced Salt Solution without bicarbonate and phenol red, 20 mM HEPES, pH 7.4) using a Denley Cellwash plate washer (Labsystems). After 45 minutes of dye-loading in the dark, using the calcium-sensitive dye Fluo-4 […] at a final concentration of 2 μM, plates were washed four times with HBSS-HEPES buffer to remove excess dye leaving 100 μl in each well. Plates were re-equilibrated to 37° C. for a few minutes.
Cells were excited with an Argon laser at 488 nm, and emission was measured through a 510-570 nm bandwidth emission filter (FLIPR™, Molecular Devices, Sunnyvale, Calif.). Drug solution was added in a 50 µl volume to each well to give the desired final concentration. The peak increase in fluorescence intensity was recorded for each well. On each plate, four wells each served as negative (HBSS-HEPES buffer) and positive controls (standard agonists: BW245C (hDP); PGE2 (hEP1; hEP2/Gqs5; hEP3A/Gqi5; hEP4/Gqs5); PGF2α (hFP); carbacyclin (hIP); U-46619 (hTP), depending on receptor). The peak fluorescence change in each drug-containing well was then expressed relative to the controls.
Compounds were tested in a high-throughput (HTS) or concentration-response (CoRe) format. In the HTS format, forty-four compounds per plate were examined in duplicates at a concentration of 10^−5 M. To generate concentration-response curves, four compounds per plate were tested in duplicates in a concentration range between 10^−5 and 10^−11 M. The duplicate values were averaged. In either, HTS or CoRe format each compound was tested on at least 3 separate plates using cells from different passages to give an n≧3.

T2 sequence (P35408 whole entry): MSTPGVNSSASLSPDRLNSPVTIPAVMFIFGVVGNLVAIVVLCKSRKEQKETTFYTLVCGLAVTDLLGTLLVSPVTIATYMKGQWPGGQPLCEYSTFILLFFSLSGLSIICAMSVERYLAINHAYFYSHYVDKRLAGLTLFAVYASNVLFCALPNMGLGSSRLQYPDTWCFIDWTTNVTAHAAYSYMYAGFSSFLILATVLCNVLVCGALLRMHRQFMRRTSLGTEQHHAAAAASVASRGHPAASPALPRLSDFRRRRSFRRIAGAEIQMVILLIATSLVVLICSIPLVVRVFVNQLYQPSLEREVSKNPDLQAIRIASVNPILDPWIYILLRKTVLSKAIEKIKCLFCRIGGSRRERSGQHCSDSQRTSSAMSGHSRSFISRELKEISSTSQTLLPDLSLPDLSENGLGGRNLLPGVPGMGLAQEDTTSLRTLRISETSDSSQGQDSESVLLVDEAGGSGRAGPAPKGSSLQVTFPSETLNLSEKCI
T1 sequence (P35408 whole entry): as above
EP2, sequence (P43116 whole entry): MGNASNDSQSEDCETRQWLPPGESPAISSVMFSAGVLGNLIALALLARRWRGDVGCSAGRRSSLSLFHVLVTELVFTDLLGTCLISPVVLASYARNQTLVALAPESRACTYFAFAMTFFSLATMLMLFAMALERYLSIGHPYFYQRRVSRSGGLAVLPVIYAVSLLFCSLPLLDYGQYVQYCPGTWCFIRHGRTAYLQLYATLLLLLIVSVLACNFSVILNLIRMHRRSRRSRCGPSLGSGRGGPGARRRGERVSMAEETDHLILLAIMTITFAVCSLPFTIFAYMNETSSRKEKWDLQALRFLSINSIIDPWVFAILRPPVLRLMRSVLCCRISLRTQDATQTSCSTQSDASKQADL

CCCCCC(O)c1ccc([C@@H]2[C@@H](CCCc3ccc(C(=O)OC(C)C)s3)CCC2(Cl)Cl)cc1 (some centres unmarked) [compound 2]
DOG Max. ΔIOP (%) [1]: −6%
MONKEY Max. ΔIOP (%) [2]: −21%
DOG Max. hyperemia [3]: 0.4

CCCCCC(O)c1ccc([C@H]2C(=O)C=C[C@@H]2C/C=C\CCCC(=O)O)cc1 (some centres unmarked) [compound 4]
Ki [4]: 4330 nM
Ki [5]: > 10000 nM
Ca2+ Signal-EC50(nM) EP4 [6]: notactive

CCCCCC(O)c1ccc([C@H]2C(=O)CC[C@@H]2CCCc2ccc(C(=O)OC(C)C)s2)cc1 (some centres unmarked) [compound 1]
DOG Max. ΔIOP (%) [1]: −37%
DOG Max. hyperemia [3]: 1.6
